Reference: patent US9040673B2, “Synthesis and identification of novel RSK-specific inhibitors” (University of Virginia Patent Foundation, priority 2009, dated 2015)

Legend:
[1] = tested on: Ha-Ras transformed NIH/3T3 cells; experiment: proliferation of Ha-Ras transformed NIH/3T3 cells; format: cell-based
Protocol: FIGS. 7A & 7B. SL0101-1 inhibition of cell proliferation is reversible. FIG. 7A: Ha-Ras-transformed cells were treated with vehicle or 50 μM SL0101-1. After 48 hr the medium was replaced and cells previously incubated with vehicle were maintained in vehicle. Cells that had previously been incubated with SL0101-1 were treated with either SL0101-1 or vehicle (washout). Cell viability was measured 48 hr later. FIG. 7B: Determination of siRNA to inhibit cancer cell proliferation. Duplex siRNAs to a sequence in the bluescript plasmid (Control), RSK1, RSK2 or RSK1 and RSK2 were transfected into MCF-7 cells. Medium was replaced 24 hr post-transfection and the cells incubated for an additional 48 hr prior to measuring cell viability.
(§1) The importance of MAPK to proliferation and oncogenesis is well established. However, the role that RSK plays in these processes has not been examined. […] SL0101-1 produced striking morphology changes in the transformed cells but not in the parental cell line. The vehicle control treated Ha-Ras transformed cells were elongated whereas in response to SL0101-1 the cells became much larger and flatter, appearing more like the parental cells, or like Ha-Ras transformed cells treated with U0126.
Cell Culture. […] Cell viability was measured at indicated time points using CellTiter-Glo™ assay reagent (Promega) according to manufacturer's protocol. […]

[2] = tested on: NIH/3T3 parental cell line; experiment: proliferation of parental NIH/3T3 cell line; format: cell-based
From the text: as §1
(§2) Cell Culture. For proliferation studies cells were seeded at 2500 to 5000 cells per well in 96 well tissue culture plates in the appropriate medium as described by American Type Culture Collection. After 24 hr, the medium was replaced with medium containing compound or vehicle as indicated. Cell viability was measured at indicated time points using CellTiter-Glo™ assay reagent (Promega) according to manufacturer's protocol. For in vivo inhibition studies, cells were seeded at 2.5×10^5 cells/well in 12 well cell culture clusters. After 24 hr, the cells were serum starved for 24 hr then incubated with compound or vehicle for 3 hr prior to a 30 min PDB stimulation. Cells were lysed as previously described (J. Biol. Chem. 273, 13317-13323 (1998)). The lysates were normalized for total protein, electrophoresed and immunoblotted. […]

p140, a RSK substrate = experiment: PDB-induced p140 phosphorylation in MCF-10A cells (immunoblot); format: cell-based, human
Protocol: To determine whether SL0101-1 inhibits RSK in intact cells, phosphorylation of p140, a RSK substrate of unknown function, was examined in a human breast cancer cell line, MCF-7. MCF-7 and MCF-10A cells were pre-incubated with vehicle, 50 μM U0126 or the indicated concentration of SL0101-1 for 3 hr (FIG. 8D). Cells were treated with 500 nM PDB for 30 min prior to lysis. Protein concentration of lysates was measured and lysates were electrophoresed, transferred and immunoblotted. […] Pre-incubation of cells with 100 μM SL0101-1 abrogates phorbol dibutyrate (PDB)-induced p140 phosphorylation as does 50 μM U0126, a MEK inhibitor.
as §2, with “(1998)).” for “(1998)). The lysates were normalized for total protein, electrophoresed and immunoblotted.”

[3] = tested on: RSK activity (eEF2 phosphorylation); experiment: eEF2 phosphorylation in J774A.1 macrophages; format: cell-based, murine; details: J774A.1 cells
From the text: The translocation step in mRNA translation is mediated by eEF2. […] This phosphorylation is produced by a highly specific kinase, EF2 kinase (EF2K). RSK phosphorylates and inactivates EF2K in response to mitogenic stimulations, which leads to a decrease in eEF2 phosphorylation (Wang, et al. Embo J 20:4370-9). Under conditions in which RSK activity is low, as during serum deprivation, eEF2 is phosphorylated by the active EF2K. However, stimulation of RSK activity by mitogens such as phorbol dibutyrate (PDB) results in reduced phosphorylation of eEF2 due to inactivation of EF2K by RSK. Therefore, the phosphorylation state of eEF2 is an indicator of RSK activity. […] The levels of total eEF2 were not altered by any of the treatments.

J774A.1 cells = experiment: LPS-stimulated factor expression in J774A.1 cells (immunoblot); format: cell-based, murine; details: 60 μM, 1 μg/ml LPS, 24 hours
From the text: FIGS. 2A & 2B Analysis of LPS stimulated cytokine expression. […] Reactions were terminated with 2×-SDS lysis buffer at indicated time points and the lysates were immunoblotted.
FIGS. 3A & 3B RSK inhibition abrogates LPS-induced iNOS expression. […] Twenty-four hours after treatment, reactions were terminated with 2×-SDS lysis buffer and the lysates were immunoblotted.
LPS activation of macrophages results in secretion of factors that stimulate the innate immune system. […] Twenty-four hours after LPS treatment the cells were lysed as previously described (Traish, et al., 1998. J. Biol. Chem. 273:13317-13323) in preparation for immunoblot analysis. Expression of the pro-inflammatory factors, TNFα, IL-1b, the anti-inflammatory factor, IL-10 and inducible nitric oxide synthase was examined by immunoblot of the cell lysates.

HUVEC cells [4] = experiment: HUVEC cell growth; format: cell-based, human
[5] = tested on: pp 140, a known RSK substrate; experiment: pp 140 phosphorylation in HUVEC cells; format: cell-based, human; details: 60 μM, 2 hr; with or without 500 nM phorbol dibutyrate
Protocol: HUVEC cells were seeded at a density of 3×10^5 cells per 35 mm dish and were maintained in complete growth medium. […] The cells were harvested and lysates prepared for SDS-PAGE and immunoblot analysis. The phosphorylation state of pp 140 was determined using a phosphospecific antibody generated against the phosphorylated peptide—LAS(P)TND.

HUVEC cells [6] = experiment: VEGF-induced capillary network formation in HUVEC cells; format: cell-based, human; details: 60 μM, 10 ng/ml VEGF, 20 hours
Protocol: Interfering with tube formation is a characteristic common to anti-angiogenic treatments. HUVEC cells were seeded at a density of 1×10^5 cells per well in 24-well culture dishes coated in growth factor-reduced Matrigel (BD Biosciences). […] The cells were incubated at 37° C. for 20 hours. Images of the cells were captured for analysis of the capillary-like network.

CaLu-1 cells = experiment: CaLu-1 wound migration assay; format: cell-based, human; details: 60 μM, 24 hr after wounding
Protocol: CaLu-1 cells were sub-cultured to confluence in 35-mm plates. […] Scratches were made in the monolayer of cells using sterile, disposable micropipette tips. Images were captured either immediately following the wounding, 6 hr, or 24 hours after wounding. At the point of wounding, the cells at the wound edge show increased light refraction indicating damage. By 6 hr after wounding, the vehicle-treated cells at the wound edge present wide lamella (indicated by arrows) extending toward the direction of the wound. […] At 24 hr, the vehicle-treated cells have migrated into the wound and are enlarged to re-form the confluent monolayer.

With `CC(=O)O[C@@H]1[C@@H](OC(C)=O)[C@@H](O)[C@H](Oc2c(-c3ccc(O)cc3)oc3cc(O)cc(O)c3c2=O)O[C@H]1C` [SL0101, kaempferol 3-O-(3″,4″-di-O-acetyl-α-L-rhamnopyranoside)] the “growth rate of Ha-Ras transformed cells” value [1] was “decreased the growth rate”, the “reversibility of growth inhibition (washout)” value ([1]; 50 μM for 48 hr, then washout, viability 48 hr later) was “Removal of SL0101-1 resulted in growth of the transformed cells” and the “proliferation of the parental line” value [2] was “little effect on proliferation”. The “PDB-induced p140 phosphorylation” value (p140, a RSK substrate) was “prevented the PDB-induced p140 phosphorylation”, the peEF2 levels [3] was “increases peEF2 levels” and the “LPS-induced iNOS expression” value (J774A.1 cells) was “abrogated the induction of iNOS expression”. The “expression of TNFα, IL-1b, IL-10” value (J774A.1 cells) was “did not alter the expression”, the “rate of HUVEC cell growth” value (HUVEC cells [4]) was “does not alter the rate of HUVEC cell growth” and the “phosphorylation of pp 140” value [5] was “reduced the phosphorylation of pp 140”. The capillary-like network formation (HUVEC cells [6]) was “indistinguishable from those treated with SU1498” and the “migration of Calu-1 cells into wound” value (CaLu-1 cells) was “have not migrated to close the wound”.
